Reference: the SangsterLogP compilation

Assay: method code SF, from Hansch, C. & Leo, A. (1987). Log P database [Dataset]. Pomona College Medicinal Chemistry Project.

SMILES	logP	also measured
Cc1ccc2ncccc2c1	2.57	
CCC(C)c1ccccc1O (stereo not given)	3.27	
O=C1OC(C2CCCCC2)c2ccccc21 (stereo not given)	3.34	
Cc1c(N(C)C)c(=O)[nH]c(=O)n1-c1ccccc1		logD (pH 7.4): 1.4
c1ccc2c(c1)CNc1ccccc1C2	2.9	
CCCCCCC1OC(=O)c2cc(N)ccc21 (stereo not given)	3.65	
OC(c1nc2ccccc2[nH]1)C(O)c1nc2ccccc2[nH]1 (stereo not given)	1.14	
CN(C)c1cnnc(N(C)C)c1	0.84	
O=[N+]([O-])c1ccc2[nH]c(C(O)C(O)c3nc4cc([N+](=O)[O-])ccc4[nH]3)nc2c1 (stereo not given)	1.45	
CC1=Nc2c(I)cc(Cl)cc2S(=O)(=O)N1	1.81	
Cc1cccc2cccnc12	2.6	
O=C(O)c1ccccc1-c1ccccc1		logD (pH 1.0): 2.89
CCOP(=O)(OCC)SCSCC	2.07	
CCCCOc1cccc(N2C(N)=NC(N)=NC2(C)C)c1		logD (pH 13.0): 2.03
O=[N+]([O-])c1cccc(I)c1	2.94	
COC1OC(=O)c2ccccc21 (stereo not given)	1	
N#CN=[N+]([O-])c1ccc(C(F)(F)F)cc1	2.47	
N#CN=[N+]([O-])c1ccc(F)cc1	1.8	
CCCCNC(=O)n1c(NC(=O)OC)nc2ccccc21	2.42	
CC[C@H]1OC(=O)[C@H](C)[C@@H](O[C@H]2C[C@@](C)(OC)[C@@H](O)[C@H](C)O2)[C@H](C)[C@@H](O[C@@H]2O[C@H](C)C[C@H](NC)[C@H]2O)[C@](C)(O)C[C@@H](C)C(=O)[C@H](C)[C@@H](O)[C@]1(C)O	2.21	
COc1ccc2[nH]c(CCc3nc4cc(OC)ccc4[nH]3)nc2c1	1.14	
CNc1ncnc2ccsc12		logD (pH 7.0): 1.43
CC(=O)OCC1CCC(NC(=O)N(CCCl)N=O)CC1 (stereo not given)	2.24	
CCCCS	2.28	
COP(=S)(NC(C)C)Oc1ccc(Cl)cc1Cl (stereo not given)	4.3	
CCOC(=O)C(=Cc1ccccc1F)C(=O)OCC	3.04	

SMILES	logP	also measured
O=c1cn[nH]c(=O)[nH]1		logD (pH 7.4): -1.37
CC1(C)OCCO1	0.46	
O=S1(=O)NC(c2ccccc2)=Nc2ccccc21	1.78	
CCOC(=O)C(=Cc1ccc(Cl)cc1)C(C)=O	3.04	
COc1cn[nH]c1	0.37	
O=C(CNC(=O)c1ccccc1)Oc1ccc(F)cc1	2.46	
O=Cc1cccc([N+](=O)[O-])c1		logD (pH 7.0): 1.47
O=C1CC(=O)NC(=O)N1		logD (pH 2.0): -1.41
C=CCN(CC=C)CC=C		logD (pH 13.0): 2.59
CCCS	1.81	
O=C(Nc1ccccc1)N(c1ccccc1)c1ccccc1	3.28	
C=C(C=O)CC	1.24	
CC(C)c1ccccc1O	2.88	
O=[N+]([O-])c1ccc(C=Cc2nc3ccccc3[nH]2)o1	1.4	
FC(F)(F)Br	1.86	
CCOP(=S)(OCC)SCSCC	3.24	
O=C1NC(c2cccc3ccccc23)Nc2ccccc21 (stereo not given)	2.96	
O=C(Cc1ccccc1)c1ccccc1	3.18	
CNc1cccc2ccccc12	2.88	
Nc1cccc2cc3ccccc3nc12	3.26	
O=C(CO)NCc1ccccc1	0.55	
O=NN(CCCl)C(=O)N[C@@H]1[C@@H](O)[C@H](O)[C@@H](CO)O[C@H]1O		logD (pH 7.4): -1.02
O=C[C@H](O)[C@@H](O)[C@H](O)[C@H](O)CO		logD (pH 7.5): -1.88
CO[C@@H]1O[C@H](COC(C)=O)[C@@H](OC(C)=O)[C@H](NC(=O)N(CCCl)N=O)[C@H]1OC(C)=O	0.67	
CC(=O)Nc1cccc(OC(=O)CNC(=O)c2ccccc2)c1	1.7	
Cc1ccoc1CN(C)C	1.63	

SMILES	logP	also measured
CNc1ccc(S(=O)(=O)N(C)C)cc1	1.43	
c1cocn1	0.12	
FC(F)Oc1ccccc1	2.41	
CN(C)c1nc2ccccc2o1	2.1	
CC(=O)OCC(COC(C)=O)OC(C)=O	0.25	
O=C1OC(O)c2ccccc21 (stereo not given)	0.57	
CCOc1ccccc1	2.51	
COc1ccc(OC)c(Cc2cnc3nc(N)nc(N)c3c2C)c1		logD (pH 13.0): 2.13
CC(C)C(=O)Nc1ccc(Cl)c(Cl)c1	3.72	
C=CC(N)=O	-0.67	
CSc1ccc2c(c1)C(c1ccccc1)=NCC(=O)N2		logD (pH 7.4): 2.92
CCCCCCCCOC(=O)c1ccccc1C(=O)OCCCCCCCC	5.22	
N#Cc1ccco1	0.96	
CO/N=C(/C(=O)N[C@@H]1C(=O)N2C(C(=O)OC(C)OC(C)=O)=C(COC(N)=O)CS[C@@H]12)c1ccco1 (stereo not given in full)		logD (pH 7.2): 0.89
O=Nc1ccc(O)c2ccccc12	2.27	
c1ccc(N2CCOCC2)cc1	1.36	
C=C(Cl)Cl	2.13	
Brc1cccs1	2.75	
OCCCCCl	0.85	
CC(C)Oc1ccccc1OC(=O)N(C)C	2.06	
CN(N=Nc1ccc(C(N)=O)cc1)C(C)(C)C	2.61	
O=NN1CCCCC1=O	-1.05	
CN(c1ccccc1)c1ccccc1		logD (pH 13.0): 3.9
C1=Cc2ccccc2C1	2.92	
Nc1ncnc2nc(-c3cccc([N+](=O)[O-])c3)[nH]c12		logD (pH 7.3): 1.93
CCC1(c2ccccc2)C(=O)NCNC1=O	0.91	

SMILES	logP	also measured
c1cnc2ccc3ncccc3c2c1	2.05	
CS(=O)(=O)OCCCCOS(C)(=O)=O	-0.52	
NC(=O)c1cccs1	0.52	
CC(=O)c1ccc2ccccn12	2.06	
COP(=O)(OC)OC	-0.52	
CCC[C@H]1CN[C@H](C(=O)N[C@@H]([C@H]2O[C@H](SC)[C@H](O)[C@@H](O)[C@H]2O)[C@H](C)Cl)C1		logD (pH 12.3): 1.69
CCOc1ccc(C(N)=O)cc1	1.3	
CC(=O)OC1CCCCC1NC(=O)N(CCCl)N=O (stereo not given)	1.93	
CN(C)C(=O)Cc1ccco1	0.01	
Cc1ccc(S(=O)(=O)Oc2ccccc2C(=O)N(C)C)cc1	2.01	
CNP(=O)(OC)Oc1ccc(Cl)cc1Cl (stereo not given)	2.41	
Cc1cccc(OC(=O)N(C)C)c1	2.05	
c1cc2[nH]cnc2cn1	0.18	
CC(=O)CF	-0.39	
CC(=O)C(Cc1ccccc1)C(C)=O	1.89	
O=C(/C=C/C(=O)c1ccccc1)c1ccccc1	3.16	
Nc1ncc2ncn(COCCO)c2n1	-0.96	
CCNCc1cccnc1		logD (pH 11.0): 0.76
c1cncc(CN2CCOCC2)c1		logD (pH 11.0): 0.04
CN(C)c1cccc2ccccc12	3.46	
N#CSc1ccccc1	2.54	
CCSC(=Cc1ccccc1)C(=O)NC(C)CC (stereo not given)	3.4	
Cc1c(N2CCCCC2)c(=O)n(-c2ccccc2)c(=O)n1C		logD (pH 7.4): 2.76
CCCC(O)CCC	2.22	
Cc1ccccc1C(O)c1ccccc1 (stereo not given)	3.06	
O=C(O)c1cccc(CSc2ccccc2)c1O	4.28	

SMILES	logP	also measured
COc1cccc(C(C)=O)c1		logD (pH 7.0): 1.84
CCOP(=O)(OCC)SCn1nnc2ccccc2c1=O	1.63	
O=C(Nc1ccc(Cl)c(Cl)c1)C(F)(F)F	3.9	
CNC(=O)NCCSCc1nc[nH]c1C	-0.06	
COc1cc2c(c(OC)c1OC)-c1ccc(SC)c(=O)cc1[C@@H](N[C@@H]1O[C@H](CO)[C@@H](O)[C@H](O)[C@H]1O)CC2		logD (pH 7.4): 1.25
CCCCCC1(CC)C(=O)NC(=O)NC1=O	2.24	
N#CN=[N+]([O-])c1cccc(C(F)(F)F)c1	2.52	
CCc1ccccc1OCC(=O)O		logD (pH 1.0): 2.53
c1ccc(SSc2ccccc2)cc1	4.41	
OCCCc1nc2ccccc2[nH]1	1.25	
NC(=O)c1ccc(F)cc1	0.91	
CCCCCC1CN[C@H](C(=O)NC(C(C)Cl)[C@H]2O[C@H](SC)[C@H](O)[C@@H](O)[C@H]2O)C1 (stereo in doubt)		logD (pH 12.0): 2.74
N#Cc1cccc(C(N)=O)c1	0.52	
CC(=O)Oc1ccccc1C#N	1.33	
CSc1ccccc1/N=N/N(C)C		logD (pH 7.4): 3.13
CC(C)C(=O)Nc1ccccc1	1.95	
Cc1ccc(N)nc1	1.02	
CC(=O)Nc1cccc(NC(C)=O)c1	0.5	
CCOP(=O)(OCC)Oc1ccc(SC)c(Cl)c1	3.48	
Cc1ccc(Cl)cc1C	3.82	
COC1=C[C@@]23CCCN2CCc2cc4c(cc2[C@@H]3[C@@H]1O)OCO4	0.84	
CCOC(=O)C(Cc1ccccc1)C(=O)OCC	2.76	
OC(c1ccccc1)(C(F)(F)F)C(F)(F)F	3.41	
O=S1(=O)NC(C2CC2)=Nc2cc(Cl)ccc21	1.98	
CC(=O)c1cccc(N2C(N)=NC(N)=NC2(C)C)c1		logD (pH 13.0): -0.22
c1ccc(Sc2ccccc2)cc1	4.45	

SMILES	logP	also measured
c1ccc(Cc2nn[nH]n2)cc1		logD (pH 2.2): 1.36
CS(=O)(=O)Nc1ccccc1	0.95	
O=[N+]([O-])c1ccc2[nH]c(CCc3nc4cc([N+](=O)[O-])ccc4[nH]3)nc2c1	1.29	
CCC1(CCC(C)C)C(=O)NC(=S)NC1=O	2.98	
Nc1ccc(C(F)(F)F)cc1		logD (pH 7.4): 2.39
CCN(CC)C(C)CN1c2ccccc2Sc2ccccc21 (stereo not given)	4.77	
CCN(CC)C(=O)[C@@H]1C=C2c3cccc4[nH]cc(c34)C[C@H]2N(C)C1	2.95	
Nc1ccccc1Br	2.11	
COc1ccccc1C=CC(=O)ON=Cc1ccc(OCCO)c(OC)c1	3.56	
CS(=O)(=O)Oc1ccccc1Cc1cnc(N)nc1N		logD (pH 13.0): 0.71
NC(=O)Nc1ccc(C(O)C(CO)NC(=O)C(Cl)Cl)cc1 (stereo not given)	-0.6	
O=C1OC2(CCCC2)c2ccccc21	2.56	
O[C@@H]1CCCC[C@H]1O	0.08	
O=C(CNC(=O)c1ccccc1)Oc1cccc(Cl)c1	3.21	
COc1cc(Cc2cnc(N)nc2N)cc(OC)c1N(C)C		logD (pH 13.0): 1.51
O=S(=O)(Oc1ccccc1)c1ccccc1	3.06	
Nc1nc(O)c2nc[nH]c2n1	-0.91	
OCC(F)(F)C(F)(F)F	1.23	
CC1CCC(=O)CC1	1.38	
CNC(=S)NCCSCc1nc[nH]c1C		logD (pH 10.8): 0.59
CN(C)C(=O)/C=C/c1ccccc1	1.73	
O=C(C(=O)c1ccco1)c1ccco1	1.24	
NC(=O)Oc1ccccc1	1.08	
O=[N+]([O-])Cc1ccccc1	1.75	
CCOC(=O)C(=Cc1ccc(OC)c(OC)c1)C(=O)OCC	2.89	
